Reference: patent publication US6815448B2, “Azaheterocyclylmethyl derivatives of 7,8-dihydro-1,6,9-trioxa-3-aza-cyclopenta[a]naphthalene as 5-HT1A antagonists” (Wyeth, priority 2001, dated 2004)
Structures can show the parent of a compound that is named as a salt. Where two headings read alike, the source gives them in different places.

Tests used:
[1] = molecular target: T1, cloned human 5-HT1A receptors (Homo sapiens, UniProt P08908); experiment: 35S-GTPγS binding assay, reversal of the standard agonist 8-OH-DPAT; type: biochemical; settings: for 5-HT1A Function Imax (maximum inhibitory effect): value in parentheses
T1 construct: expressed in transfected cells
T1 sequence (P08908 1-422): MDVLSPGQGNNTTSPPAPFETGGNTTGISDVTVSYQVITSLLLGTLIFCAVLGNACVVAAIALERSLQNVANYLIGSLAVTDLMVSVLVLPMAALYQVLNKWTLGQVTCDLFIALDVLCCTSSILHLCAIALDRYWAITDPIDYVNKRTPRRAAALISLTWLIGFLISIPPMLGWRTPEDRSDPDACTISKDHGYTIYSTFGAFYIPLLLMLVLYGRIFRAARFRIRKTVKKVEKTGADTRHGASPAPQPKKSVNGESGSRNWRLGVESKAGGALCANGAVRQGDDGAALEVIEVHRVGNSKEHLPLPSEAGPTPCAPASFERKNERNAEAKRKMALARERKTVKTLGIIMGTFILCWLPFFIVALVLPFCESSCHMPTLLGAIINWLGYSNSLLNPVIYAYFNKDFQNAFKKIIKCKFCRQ
Procedure: Antagonist activity at 5-HT1A receptors was established by using a ^35S-GTPγS binding assay similar to that used by Lazareno and Birdsall (Br. J. Pharmacol. 109: 1120, 1993), in which the test compound's ability to affect the binding of ^35S-GTPγS to membranes containing cloned human 5-HT1A receptors was determined. Agonists produce an increase in binding whereas antagonists produce no increase but rather reverse the effects of the standard agonist 8-OH-DPAT. The test compound's maximum inhibitory effect is represented as the Imax, while its potency is defined by the IC50.

human 5-HT1A receptors = molecular target: T2, human 5-HT1A receptors (Homo sapiens, UniProt P08908); experiment: [3H] 8-OH-DPAT displacement from 5-HT1A receptor; type: binding; settings: CHO cells stably transfected with human 5-HT1A receptors, read-out: 5-HT1A Receptor Affinity KI
T2 construct: expressed in transfected cells; host or cells: CHO cells
T2 sequence (P08908 1-422): T1 sequence (P08908 1-422)
Excerpt: High affinity for the serotonin 5-HT1A receptor was established by testing the claimed compound's ability to displace [^3H] 8-OH-DPAT (dipropylaminotetralin) from the 5-HT1A serotonin receptor following a modification of the procedure of Hall et al. J. Neurochem. 44, 1685 (1985) which utilizes CHO cells stably transfected with human 5-HT1A receptors.

[2] = 35S-GTPγS binding, membranes with cloned human 5-HT1A receptors, antagonist potency, read-out: 5-HT1A Function IC50

Structure (SMILES) | melting point | IC50 [1, 2] | 5-HT1A Function Imax (maximum inhibitory effect) ([1]; 35S-GTPγS binding) | Ki (human 5-HT1A receptors) | IC50 [1]
Cc1nc2ccc3c(c2o1)OC(CN1CCC2(CC1)C(=O)NCN2c1ccccc1)CO3 (centres unmarked) (as salt: fumarate) [Example 1, 8-(2-Methyl-7,8-dihydro-1,6,9-trioxa-3-aza-cyclopenta[a]naphthalen-8-ylmethyl)-1-phenyl-1,3,8triazaspiro[4.5]decan-4-one] | 240 °C | – | – | – | –
Cc1nc2ccc3c(c2o1)OC(CN1CCC(C(=O)c2ccc(F)cc2)CC1)CO3 (centres unmarked) (as salt: fumarate) [Example 4, (4-Fluorophenyl) (1-[2-methyl-7,8-dihydro-1,6,9-trioxa-3-aza-cyclopenta[a]naphthalen-8-ylmethyl]-4-piperidinyl)methanone] | 229 to 230 °C | – | – | – | –
Cc1nc2ccc3c(c2o1)O[C@@H](CN1CC=C(c2cccc(C(F)(F)F)c2)CC1)CO3 (as salt: fumarate) [Example 5] | 170 to 173 °C | – | – | – | –
Cc1nc2ccc3c(c2o1)OC(CN1CCCCC1)CO3 (centres unmarked) (as salt: fumarate) [Example 6, 2-Methyl-8-(piperidin-1-ylmethyl)-7,8-dihydro-1,6,9-trioxa-3-aza-cyclopenta[a]naphthalene] | 109 to 112 °C | – | – | – | –
Cc1nc2ccc3c(c2o1)OC(CN1CCC2(CC1)C(=O)NCN2c1ccccc1)CO3 (centres unmarked) [Example 1, 8-(2-Methyl-7,8-dihydro-1,6,9-trioxa-3-aza-cyclopenta[a]naphthalen-8-ylmethyl)-1-phenyl-1,3,8triazaspiro[4.5]decan-4-one] | – | 1050 nM | 60.0 | 0.93 nM | –
Cc1nc2ccc3c(c2o1)OC(CN1CCC(n2c(=O)[nH]c4ccccc42)CC1)CO3 (centres unmarked) [Example 2, 1-[1-(2-Methyl-7,8-dihydro-1,6,9-trioxa-3-aza-cyclopenta[a]naphthalen-8-ylmethyl)-piperidin-4-yl]-1,3-dihydro-2H-benzimidazol-2-one] | 218 to 220 °C | – | 42.0 | 1 nM | 2.7 nM
Cc1nc2ccc3c(c2o1)OC(CN1CCC(O)(c2cccc(C(F)(F)F)c2)CC1)CO3 (centres unmarked) [Example 3, 1-(2-Methyl-7,8-dihydro-1,6,9-trioxa-3-aza-cyclopenta[a]naphthalen-8-ylmethyl)-4-[3-(trifluoromethyl)phenyl]-4-piperidinol] | 148 to 151 °C | – | 47.0 (47.0) | 6.52 nM | 47 nM
Cc1nc2ccc3c(c2o1)OC(CN1CCC(C(=O)c2ccc(F)cc2)CC1)CO3 (centres unmarked) [Example 4, (4-Fluorophenyl) (1-[2-methyl-7,8-dihydro-1,6,9-trioxa-3-aza-cyclopenta[a]naphthalen-8-ylmethyl]-4-piperidinyl)methanone] | – | – | – | 202 nM | –
Cc1nc2ccc3c(c2o1)O[C@@H](CN1CC=C(c2cccc(C(F)(F)F)c2)CC1)CO3 [Example 5] | – | 798 nM | 97.0 | 39.4 nM | –
Cc1nc2ccc3c(c2o1)OC(CN1CCCCC1)CO3 (centres unmarked) [Example 6, 2-Methyl-8-(piperidin-1-ylmethyl)-7,8-dihydro-1,6,9-trioxa-3-aza-cyclopenta[a]naphthalene] | – | – | – | 173 nM | –
